The source of these data is publication PMC5848165 (Toxins, 2018).

Residues, ends and D or L forms follow the SMILES beside them.

One series concerns the target T1, Nav1.5 R800D (Rattus norvegicus, UniProt P15389, R801D).
T1 construct: expressed in transfected cells; host or cells: HEK293 (HEK293T) cells, transient
Briefly: Whole-cell patch clamp, Nav1.5 mutant R800D in HEK293 cells. It counts as cell-based. As to conditions: 1 µM. An excerpt: We next investigated the critical residues in DIIS3-S4 linker that determined the sensitivity of Nav1.7 to JZTX-34. An acidic residue, D816, is present in the DIIS3-S4 linker of Nav1.7, while the corresponding residue in Nav1.5 is an alkaline amino acid, R800. To determine whether the acidic residue D816 occupies an important role in toxin binding, we constructed two mutants: D816R of Nav1.7 and R800D of Nav1.5. One µM of JZTX-34 inhibited 54.3 ± 5.2% of WT Nav1.7 currents (Figure 4A), but only 16.8 ± 4.6% currents of D816R were inhibited at the same concentration (Figure 4B). […]
(§1) The HEK293T cells were maintained in standard culture conditions (5% CO2 and 37 °C). […] After culturing for 36–72 h, cells with obvious green fluorescence were selected for sodium currents recordings the internal solution for sodium currents recording that contained (in mM) 140 CsF, 5 NaCl, 10 HEPES, 3 Na2-ATP, and 10 EGTA. […]
(§2) Sodium currents were recorded from DRG, HEK293, and ND cells by the whole-cell patch-clamp technique at 25 °C. […] Experiments date were acquired from whole-cell Axon 700B patch clamp amplifier (Molecular Devices, Sunnyvale, CA, USA) and analyzed by the program Clampfit10.0 (Molecular Devices, Sunnyvale, CA, USA) and Sigmaplot. […]
Data from Axon 700B patch clamp were analyzed by Clampfit10.0 (Molecular Devices, Sunnyvale, CA, USA). […]
(The patch-clamp technique gives a direct electrical read-out from membranes.)

Series [1] has as its system chimera #2, Nav1.7 (Nav1.5-DIV-S3-S4). Briefly: Whole-cell patch clamp, chimera #2 in HEK293 cells. As to conditions: n = 5, −10 mV from −80 mV. The class given is cell-based, human Nav1.7 / rat Nav1.5.
Text: Many animal toxins alter activation or inactivation of sodium channels by binding to the S3–S4 regions of channels, which are probably the external linkers or voltage sensors of sodium channels. α-Scorpion toxins slow down fast-inactivation of sodium channels by binding to the extracellular linker loop of DIVS3-S4 (neurotoxin site 3). Meanwhile, β-scorpion toxins that interact with DIIS3-S4 linker enhance the activation of sodium channels by trapping DII voltage sensor in an activated state. As Nav1.5 channel is resistant to the inhibition of JZTX-34, we investigated the binding site of JZTX-34 to Nav1.7 by constructing chimeric channels between Nav1.5 and Nav1.7. […]
as §1, §2

The subject of series [2] is TTX-R sodium channels from rat DRG neurons. Description: Whole-cell patch clamp, TTX-R sodium currents in rat DRG neurons. It counts as cell-based, rat (Sprague-Dawley). The note with it: 1 µM synthetic JZTX-34; 100 nM TTX in external solution; −10 mV from −80 mV.

T1 sequence (Q07699 19-218): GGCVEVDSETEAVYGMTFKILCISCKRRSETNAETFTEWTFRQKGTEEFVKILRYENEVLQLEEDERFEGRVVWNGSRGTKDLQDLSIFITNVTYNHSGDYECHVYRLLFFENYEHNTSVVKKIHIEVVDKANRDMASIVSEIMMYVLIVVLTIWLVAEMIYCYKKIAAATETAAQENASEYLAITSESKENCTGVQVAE
T1 sequence (P15389 whole entry R801D): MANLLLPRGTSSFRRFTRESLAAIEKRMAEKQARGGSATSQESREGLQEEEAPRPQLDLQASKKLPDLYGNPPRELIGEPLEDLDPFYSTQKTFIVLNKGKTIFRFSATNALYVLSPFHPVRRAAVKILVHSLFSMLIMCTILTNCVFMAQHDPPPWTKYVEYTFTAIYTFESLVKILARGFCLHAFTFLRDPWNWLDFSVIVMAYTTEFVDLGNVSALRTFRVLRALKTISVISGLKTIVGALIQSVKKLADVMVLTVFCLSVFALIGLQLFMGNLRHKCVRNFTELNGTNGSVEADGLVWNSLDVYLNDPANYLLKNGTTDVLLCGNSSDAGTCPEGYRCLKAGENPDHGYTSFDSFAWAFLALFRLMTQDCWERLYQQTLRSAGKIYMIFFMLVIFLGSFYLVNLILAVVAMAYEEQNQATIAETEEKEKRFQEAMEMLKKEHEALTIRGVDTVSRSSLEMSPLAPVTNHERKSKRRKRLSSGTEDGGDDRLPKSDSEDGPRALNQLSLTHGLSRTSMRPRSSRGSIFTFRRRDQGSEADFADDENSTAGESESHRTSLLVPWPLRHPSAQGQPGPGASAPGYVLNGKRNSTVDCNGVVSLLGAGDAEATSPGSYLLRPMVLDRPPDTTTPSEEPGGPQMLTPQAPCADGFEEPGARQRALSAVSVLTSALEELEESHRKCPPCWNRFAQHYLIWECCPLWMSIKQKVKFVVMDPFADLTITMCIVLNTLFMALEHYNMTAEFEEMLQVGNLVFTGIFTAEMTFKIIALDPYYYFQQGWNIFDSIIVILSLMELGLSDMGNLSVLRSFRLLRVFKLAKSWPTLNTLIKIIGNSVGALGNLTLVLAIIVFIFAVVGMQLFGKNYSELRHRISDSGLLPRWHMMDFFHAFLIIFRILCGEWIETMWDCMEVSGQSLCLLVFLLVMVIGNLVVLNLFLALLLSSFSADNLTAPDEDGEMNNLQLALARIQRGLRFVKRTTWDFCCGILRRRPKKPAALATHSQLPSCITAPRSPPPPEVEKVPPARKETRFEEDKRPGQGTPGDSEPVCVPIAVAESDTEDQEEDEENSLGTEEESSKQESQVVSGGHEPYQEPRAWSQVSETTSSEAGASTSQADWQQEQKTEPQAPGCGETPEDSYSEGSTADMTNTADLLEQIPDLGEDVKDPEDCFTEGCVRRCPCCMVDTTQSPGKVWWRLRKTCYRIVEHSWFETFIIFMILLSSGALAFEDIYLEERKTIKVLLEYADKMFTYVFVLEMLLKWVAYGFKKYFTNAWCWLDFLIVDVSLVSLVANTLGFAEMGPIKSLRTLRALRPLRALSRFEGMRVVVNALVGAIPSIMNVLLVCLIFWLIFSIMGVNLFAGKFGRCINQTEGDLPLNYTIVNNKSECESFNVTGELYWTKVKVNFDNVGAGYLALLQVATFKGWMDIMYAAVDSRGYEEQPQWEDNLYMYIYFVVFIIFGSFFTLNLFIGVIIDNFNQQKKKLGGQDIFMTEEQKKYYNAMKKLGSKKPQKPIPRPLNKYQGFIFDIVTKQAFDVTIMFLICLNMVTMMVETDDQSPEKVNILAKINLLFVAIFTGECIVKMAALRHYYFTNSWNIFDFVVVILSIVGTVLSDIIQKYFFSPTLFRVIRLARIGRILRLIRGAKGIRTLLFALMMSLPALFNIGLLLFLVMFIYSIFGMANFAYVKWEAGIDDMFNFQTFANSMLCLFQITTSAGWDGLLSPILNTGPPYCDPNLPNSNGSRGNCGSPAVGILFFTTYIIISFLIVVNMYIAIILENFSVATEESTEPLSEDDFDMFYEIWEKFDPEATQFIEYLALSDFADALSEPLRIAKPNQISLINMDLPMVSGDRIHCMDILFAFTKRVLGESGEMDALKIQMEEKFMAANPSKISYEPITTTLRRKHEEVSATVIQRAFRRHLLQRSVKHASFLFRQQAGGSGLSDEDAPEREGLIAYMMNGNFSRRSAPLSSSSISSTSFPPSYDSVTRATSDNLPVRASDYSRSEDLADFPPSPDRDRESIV

As to `CC(C)C[C@@H]1NC(=O)[C@H](Cc2c[nH]c3ccccc23)NC(=O)[C@H](CCC(=O)O)NC(=O)[C@H](CCCNC(=N)N)NC(=O)[C@@H](NC(=O)[C@H](C)N)CSSC[C@@H]2NC(=O)[C@@H]3CSSC[C@@H](C(=O)N[C@H](C(=O)N[C@@H](Cc4c[nH]c5ccccc45)C(=O)N[C@@H](CC(=O)O)C(=O)N[C@@H](Cc4c[nH]c5ccccc45)C(=O)N[C@H](C(=O)N[C@H](C(=O)O)C(C)C)[C@@H](C)O)C(C)C)NC(=O)[C@H](Cc4c[nH]cn4)NC(=O)[C@H](Cc4ccc(O)cc4)NC(=O)[C@@H]4CCCN4C(=O)[C@H](Cc4c[nH]c5ccccc45)NC(=O)[C@H](CCCCN)NC(=O)[C@H](CCCCN)NC(=O)[C@H](CCCNC(=N)N)NC(=O)[C@H](CSSC[C@H](NC(=O)CNC(=O)CNC1=O)C(=O)N[C@@H](CO)C(=O)N[C@@H](CCCCN)C(=O)N[C@@H](CC(=O)O)C(=O)N[C@@H](C)C(=O)N[C@@H](CC(=O)O)C(=O)N3)NC(=O)[C@H](CCC(=O)O)NC(=O)[C@H](CC(C)C)NC(=O)[C@H](Cc1c[nH]cn1)NC(=O)[C@H](C)NC2=O` [JZTX-34, Jingzhaotoxin-34] (HELM PEPTIDE1{A.C.R.E.W.L.G.G.C.S.K.D.A.D.C.C.A.H.L.E.C.R.K.K.W.P.Y.H.C.V.W.D.W.T.V}$PEPTIDE1,PEPTIDE1,2:R3-16:R3|PEPTIDE1,PEPTIDE1,9:R3-21:R3|PEPTIDE1,PEPTIDE1,15:R3-29:R3$$$V2.0; N-terminus and C-terminus assumed), the “inhibition of Nav1.5 R800D currents” value against Nav1.5 R800D is listed as “obviously inhibited”. The “inhibition of chimera #2 currents” value in series [1] (1 µM) is on record as 43.6 ± 4.5%; in series [1] (10 µM) it was 76.3 ± 3.6%. Besides, the “effect on TTX-R sodium currents” value in series [2] is listed as “had no effect on TTX-R sodium currents”.
